Source: publication PMC11167047 (Cell Death Discovery, 2024)

Key:
Test in all cases: kinome screen (33PanQinase)
Type in all cases: biochemical
EPHB1 = biological target: T1, EPHB1 (Homo sapiens, UniProt P54762)
T1 construct: purchased Reaction Biology Europe GmbH (formerly ProQinase)
T1 sequence (P54762 18-984): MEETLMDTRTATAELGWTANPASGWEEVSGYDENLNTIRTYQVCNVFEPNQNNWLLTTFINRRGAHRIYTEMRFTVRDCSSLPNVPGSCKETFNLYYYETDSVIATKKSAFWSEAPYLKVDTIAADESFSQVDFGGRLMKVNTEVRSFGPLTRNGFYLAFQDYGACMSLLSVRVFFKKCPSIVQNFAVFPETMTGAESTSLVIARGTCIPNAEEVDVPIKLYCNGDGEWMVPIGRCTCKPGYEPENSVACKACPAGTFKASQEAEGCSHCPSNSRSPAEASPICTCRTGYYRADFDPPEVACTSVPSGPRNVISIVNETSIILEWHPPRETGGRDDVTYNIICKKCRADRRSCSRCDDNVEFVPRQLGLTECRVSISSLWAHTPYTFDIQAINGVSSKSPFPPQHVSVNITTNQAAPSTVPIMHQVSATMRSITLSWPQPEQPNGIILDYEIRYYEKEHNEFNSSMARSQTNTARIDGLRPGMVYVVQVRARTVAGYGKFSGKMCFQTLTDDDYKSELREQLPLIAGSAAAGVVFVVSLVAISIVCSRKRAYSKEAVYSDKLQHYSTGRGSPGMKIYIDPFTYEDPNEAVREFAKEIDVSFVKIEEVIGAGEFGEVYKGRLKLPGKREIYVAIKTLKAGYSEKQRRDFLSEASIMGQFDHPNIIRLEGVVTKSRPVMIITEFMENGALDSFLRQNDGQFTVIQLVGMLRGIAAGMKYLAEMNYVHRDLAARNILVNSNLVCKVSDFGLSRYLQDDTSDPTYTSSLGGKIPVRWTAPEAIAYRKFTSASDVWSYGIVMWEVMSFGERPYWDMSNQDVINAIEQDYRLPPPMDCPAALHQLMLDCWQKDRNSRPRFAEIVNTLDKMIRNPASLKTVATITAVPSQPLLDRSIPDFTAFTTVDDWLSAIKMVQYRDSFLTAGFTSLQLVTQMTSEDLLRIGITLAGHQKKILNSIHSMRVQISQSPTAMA
Procedure: (§1) The Kinome Screening was performed by Reaction Biology Europe GmbH (http://reactionbiology.com; Freiburg i. Br., Germany).

NEK2 = biological target: T2, NEK2 (Homo sapiens, UniProt P51955)
T2 construct: purchased Reaction Biology Europe GmbH (formerly ProQinase)
T2 sequence (P51955 1-445): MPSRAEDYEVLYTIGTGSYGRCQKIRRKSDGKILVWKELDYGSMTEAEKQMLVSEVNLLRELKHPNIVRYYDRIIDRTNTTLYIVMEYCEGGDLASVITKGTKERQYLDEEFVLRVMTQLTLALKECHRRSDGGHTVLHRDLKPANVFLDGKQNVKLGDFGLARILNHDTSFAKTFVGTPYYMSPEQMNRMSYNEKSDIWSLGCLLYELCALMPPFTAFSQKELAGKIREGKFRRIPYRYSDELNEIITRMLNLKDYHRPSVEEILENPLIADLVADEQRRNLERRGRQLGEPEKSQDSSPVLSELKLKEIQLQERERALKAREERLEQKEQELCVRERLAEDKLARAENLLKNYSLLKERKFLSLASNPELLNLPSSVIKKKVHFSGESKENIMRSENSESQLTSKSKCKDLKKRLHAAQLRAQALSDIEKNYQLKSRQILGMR
Procedure: as §1

NEK1 = biological target: T3, NEK1 (Homo sapiens, UniProt Q96PY6)
T3 construct: purchased Reaction Biology Europe GmbH (formerly ProQinase)
T3 sequence (Q96PY6 1-1258): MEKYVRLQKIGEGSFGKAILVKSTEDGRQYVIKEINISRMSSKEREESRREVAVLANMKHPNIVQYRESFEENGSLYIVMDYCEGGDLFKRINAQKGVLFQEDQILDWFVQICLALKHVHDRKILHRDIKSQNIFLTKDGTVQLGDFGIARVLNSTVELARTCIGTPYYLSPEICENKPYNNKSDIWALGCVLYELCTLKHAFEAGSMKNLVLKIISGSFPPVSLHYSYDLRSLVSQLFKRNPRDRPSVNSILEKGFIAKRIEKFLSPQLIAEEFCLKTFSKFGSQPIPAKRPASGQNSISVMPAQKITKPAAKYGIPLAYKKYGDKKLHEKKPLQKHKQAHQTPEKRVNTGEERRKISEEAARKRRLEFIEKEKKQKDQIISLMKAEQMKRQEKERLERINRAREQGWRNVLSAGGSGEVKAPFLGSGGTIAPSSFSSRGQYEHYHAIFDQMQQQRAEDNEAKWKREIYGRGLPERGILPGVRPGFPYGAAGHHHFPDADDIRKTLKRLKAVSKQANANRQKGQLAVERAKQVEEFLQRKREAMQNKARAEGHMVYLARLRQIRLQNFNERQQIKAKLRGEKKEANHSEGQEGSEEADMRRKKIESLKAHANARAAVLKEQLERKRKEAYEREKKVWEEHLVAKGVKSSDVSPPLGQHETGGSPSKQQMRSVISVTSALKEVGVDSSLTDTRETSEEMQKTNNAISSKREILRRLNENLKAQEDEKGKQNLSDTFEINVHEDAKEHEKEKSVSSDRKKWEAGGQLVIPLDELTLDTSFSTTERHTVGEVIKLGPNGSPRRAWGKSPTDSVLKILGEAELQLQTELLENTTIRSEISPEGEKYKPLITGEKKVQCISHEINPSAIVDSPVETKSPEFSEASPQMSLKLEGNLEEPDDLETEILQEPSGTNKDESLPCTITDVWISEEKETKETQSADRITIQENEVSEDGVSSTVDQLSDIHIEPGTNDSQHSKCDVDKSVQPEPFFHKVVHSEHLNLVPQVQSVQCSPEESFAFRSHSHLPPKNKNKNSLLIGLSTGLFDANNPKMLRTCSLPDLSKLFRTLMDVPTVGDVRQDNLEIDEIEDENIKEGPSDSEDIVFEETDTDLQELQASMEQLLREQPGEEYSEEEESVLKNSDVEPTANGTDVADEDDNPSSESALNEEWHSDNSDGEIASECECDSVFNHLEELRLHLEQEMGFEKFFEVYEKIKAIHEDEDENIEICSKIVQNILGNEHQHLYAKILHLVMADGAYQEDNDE
Procedure: as §1

Structure (SMILES): COc1ccnc2[nH]cc(-c3cc(N)nc(N)c3)c12 [meriolin 16]
- residual kinase activity (EPHB1; 0.03 µM): 98 % of control
- residual kinase activity (EPHB1; 0.3 µM): 97 % of control
- residual kinase activity (NEK2; 0.03 µM): 103 % of control
- residual kinase activity (NEK2; 0.3 µM): 96 % of control
- residual kinase activity (NEK1; 0.03 µM): 86 % of control
- residual kinase activity (NEK1; 0.3 µM): 67 % of control

Structure (SMILES): c1ccc(CNc2cc(-c3c[nH]c4ncccc34)ccn2)cc1 [meriolin 36]
- residual kinase activity (EPHB1; 0.3 µM): 124 % of control
- residual kinase activity (EPHB1; 3 µM): 79 % of control
- residual kinase activity (NEK2; 0.3 µM): 95 % of control
- residual kinase activity (NEK2; 3 µM): 72 % of control
- residual kinase activity (NEK1; 0.3 µM): 84 % of control
- residual kinase activity (NEK1; 3 µM): 55 % of control
